Results reported in patent US20250295679A1, “Compositions and Dosage Forms for Treatment of HPV Infection and HPV-Induced Neoplasia” (priority 2022, published 2025).
Where two headings read alike, the source gives them in different places.

Experiments:
[1] = Bulk (accelerated) stability, one week, HPLC and XRPD; conditions: for HPLC purity, Initial: initial chemical purity before storage; for Bulk (HPLC) Purity / Bulk Color: 1 week
Procedure: Bulk stability: Accelerated stability experiments were conducted at 25° C./92% RH and 40° C./75% RH in an open container, 60° C. in a tight container for one week.
Samples were characterized by XRPD and HPLC and inspected for color change.
Accelerated stability experiments were conducted at 25° C./92% RH in an open container, at 40° C./75% RH in an open container, and at 60° C. in a tight container for one week.

[2] = Solubility in buffers, water and simulated vaginal fluid at 37° C.
Procedure: About 4 mg of Compound I Pattern 1 was added into 2 mL of buffer solution.
(§1) Solubility was tested in five media, pH 3.0 citrate buffer, pH 4.5 acetate buffer, pH 6.8 phosphate buffer, water, simulated vaginal fluid (pH 4.2) at 37° C. for 0.5 h and 2 h.
The salt amount used is equivalent to 10 mg anhydrous free base. […] The obtained clear solutions were analyzed by pH meter for pH, and solubility was determined by observation.
as §1

[3] = Hygroscopicity by DVS at 25° C.; format: physicochemical; conditions: for Desorption (%) Cycle 1 / Desorption (%) Cycle 2 / Sorption (%) Cycle 1 / Sorption (%) Cycle 2 / Water uptake / Desorp. (%) Cycle 1 / Desorp. (%) Cycle 2 / Sorp. (%) Cycle 1 / Sorp. (%) Cycle 2: DVS 25° C.; for XRPD after DVS test: 25° C.; for Water uptake: up to / in 95% RH
Procedure: Hygroscopicity was investigated by DVS at 25° C., using the following method: • Method: 40-0-95-0-40% RH, dm/dt=0.002

[4] = Ex vivo permeation and penetration across porcine vaginal tissue (Franz diffusion cell, IVPT); format: in vitro ADME; parameters: Concentration in vaginal tissue: unit not given here; conditions: for Tissue penetration: porcine vaginal tissue, 0.1% Compound II gel, 1% and 3% ABI-1968 formulations
From the text: FIG. 116 is an in vitro tissue permeation test in vaginal tissue comparing Compound II to ABI-1968. […] Bars B and C show the tissue penetration of a 0.1% Compound II gel in human cervical tissue. […] This may be a contributing factor to the performance of ABI-1968 in clinical studies. […] This is described in Example 41.
Freshly harvested porcine vaginal tissue was procured from local slaughterhouse in an ice box. The vaginal tissue was cut open to expose the mucosal surface and tissue was cleaned by gentle flow of PBS pH 7.4. The porcine vaginal tissue was cut into circular portions (approximately 2 cm^2) with help of a […] punch.
The circular portion of tissue was sandwiched between two chambers of a Franz diffusion cell with an active diffusion area of 1 cm^2, and the mucosal layer was exposed to the donor chambers. The resistance across porcine vaginal tissue was measured using a wave form generator to ensure the integrity of the tissue segment used for the permeation study. Porcine vaginal tissue with resistance of ≥3 KΩ·cm^2 was used for study. The receiver chamber was filled with 8 ml of 5% solutol PBS 7.4 pH, which was stirred at 600 rpm with a 3 mm magnetic stir bar and the temperature was maintained at 37° C. with a circulating water bath.
The ˜200 mg of gel was filled into tared 1 mL syringe and gel was dispensed to donor chamber. The gel was spread on to mucosal surface with pre weighed applicator. After loading and spreading of the gel onto surface of mucosal surface, the weight of 1 mL syringe and applicator was noted to determine the exact amount of gel loaded into donor chamber.
Time course (2 h, 4 h and 8 h) porcine vaginal permeation studies were performed. After loading gel, 500 μL samples were withdrawn from the receiver compartment at different time intervals and each time an equal volume of fresh receiver media was used to replace withdrawn samples. The sample withdrawn at each time interval were stored immediately in −20° C. until analysis. After 2, 4 and 8 h, the formulation was removed from the donor chamber with help of syringe and cleaned with cotton swab. The tissue was removed and washed gently with wash solution (50% methanol in water) 5 times and alternatively cleaning with cotton swab.
An 8 mm punch of active diffusion area of washed porcine vaginal tissue was removed, weighed and transferred into a tube. This tube was immediately placed into dry ice for ˜15 min. After specified time, tissue was removed and placed in precooled dish. The tissue was minced into smaller pieces on a dish with a precooled surgical blade. The minced tissue was transferred to sample tubes and dish was rinsed with 1 ml of 5% solutol in PBS 7.4 pH and transferred to same tissue sample tube. These tubes were stored in −70° C. until analysis. […]

[5] = Polymorph screening by equilibration in solvents; format: physicochemical
[6] = 25° C., 92% RH, open container, one week
[7] = BS1: solid state, 25° C./92% RH, open container
[8] = BS2: solid state, 40° C./75% RH, open container
[9] = BS3: solid state, 60° C., tight container

## CCOC(=O)C(C)NP(=O)(COCCn1cnc2c(OC)nc(N)nc21)OCc1ccccc1.CCOC(=O)C(C)NP(=O)(COCCn1cnc2c(OC)nc(N)nc21)OCc1ccccc1.O=C(O)C=CC(=O)O (mixture of isomers) [Compound I hemifumarate]
[1]; [6]
  HPLC purity after storage: 97.0%
  XRPD after storage: No change
[1]; 40° C., 75% RH, open container, one week
  HPLC purity after storage: 90.9%
[1]; 60° C., tight container, one week
  HPLC purity after storage: 82.3%
[1]; listed as Compound I Hemifumarate Pattern 1
  HPLC purity, Initial: 97.8%
[1]; listed as Compound I hemifumarate Pattern 1
  HPLC purity, Initial: 97.8%
[2]
  Solubility 0.5 hrs: >2000 µg/mL
  Solubility 2 hrs: >2000 µg/mL
[2]; pH 3
  Solubility 0.5 hrs: >2000 µg/mL
  Solubility 2 hrs: >2000 µg/mL
[2]; pH 4.2
  Solubility 0.5 hrs: >2000 µg/mL
  Solubility 2 hrs: >2000 µg/mL
[2]; pH 4.5
  Solubility 0.5 hrs: >2000 µg/mL
  Solubility 2 hrs: >2000 µg/mL
[2]; pH 6.8
  Solubility 0.5 hrs: >2000 µg/mL
  Solubility 2 hrs: >2000 µg/mL
[2]; solution in simulated vaginal fluid (pH adjusted with 0.2N NaOH), 37° C.
  pH at 2 hrs: (5.30)
[3]; 0% RH
  Desorption (%) Cycle 1: 0.13%
  Desorption (%) Cycle 2: 0.00%
  Sorption (%) Cycle 1: 0.13%
  Sorption (%) Cycle 2: 0.00%
[3]; 10% RH
  Desorption (%) Cycle 1: 0.36%
  Desorption (%) Cycle 2: 0.23%
  Sorption (%) Cycle 1: 0.34%
  Sorption (%) Cycle 2: 0.20%
[3]; 20% RH
  Desorption (%) Cycle 1: 0.56%
  Desorption (%) Cycle 2: 0.44%
  Sorption (%) Cycle 1: 0.53%
  Sorption (%) Cycle 2: 0.40%
[3]; 30% RH
  Desorption (%) Cycle 1: 0.79%
  Desorption (%) Cycle 2: 0.68%
  Sorption (%) Cycle 1: 0.73%
  Sorption (%) Cycle 2: 0.61%
[3]; 40% RH
  Desorption (%) Cycle 1: 1.04%
  Desorption (%) Cycle 2: 0.94%
  Sorption (%) Cycle 1: 0.96%
  Sorption (%) Cycle 2: 0.87%
[3]; 50% RH
  Desorption (%) Cycle 2: 1.26%
  Sorption (%) Cycle 1: 1.22%
[3]; 60% RH
  Desorption (%) Cycle 2: 1.68%
  Sorption (%) Cycle 1: 1.57%
[3]; 70% RH
  Desorption (%) Cycle 2: 2.25%
  Sorption (%) Cycle 1: 2.04%
[3]; 80% RH
  Desorption (%) Cycle 2: 3.14%
  Sorption (%) Cycle 1: 2.80%
[3]; 90% RH
  Desorption (%) Cycle 2: 4.84%
  Sorption (%) Cycle 1: 4.54%
[3]; 95% RH
  Desorption (%) Cycle 2: 6.87%
  Sorption (%) Cycle 1: 6.87%
[3]; after humidity cycle 40-0-95-0-40% RH
  XRPD after DVS test: No form change,
[3]
  Water uptake: ~6.9%

## CCCCCCCCCCCCCCCCCCOCCOP(=O)(COCCn1cnc2c(=O)[nH]c(N)nc21)OCc1ccccc1 (centres unmarked) [ABI-1968]
[4]; 3% dose, FIG. 116
  Concentration in vaginal tissue: < 15
[4]; FIG. 116
  Tissue penetration: substantially smaller degree
[4]; up to a 3% dose, Bar F and G in FIG. 116
  Tissue concentration: < 15 ng/mg

## CCOC(=O)[C@H](C)N[P@@](=O)(COCCn1cnc2c(OC)nc(N)nc21)OCc1ccccc1.O=C(O)/C=C/C(=O)O [Compound II]
[4]; FIG. 116
  Tissue penetration: high tissue penetration
[5]; PS1: IPA
  Crystal modification after 1 week equilibration at 25° C.: Compound II Pattern 1
[5]; PS2: Heptanes
  Crystal modification after 1 week equilibration at 25° C.: Compound II Pattern 1
[5]; PS3: Water
  Crystal modification after 1 week equilibration at 25° C.: Compound II Pattern 1
[5]; PS4: ACN
  Crystal modification after 1 week equilibration at 25° C.: Compound II Pattern 2
[5]; PS5: MEK
  Crystal modification after 1 week equilibration at 25° C.: Compound II Pattern 3
[5]; PS6: Acetone
  Crystal modification after 1 week equilibration at 25° C.: Compound II Pattern 1
[5]; PS7: IPA/heptanes (3/10, v/v)
  Crystal modification after 1 week equilibration at 25° C.: Compound II Pattern 1
[5]; PS8: water/ACN (2.9/97.1, v/v)
  Crystal modification after 1 week equilibration at 25° C.: Compound II Pattern 2
[5]; PS9: IPA/MTBE (1/3, v/v)
  Crystal modification after 1 week equilibration at 25° C.: Compound II Pattern 1
[5]; PS10: EA/toluene (1/3, v/v)
  Crystal modification after 1 week equilibration at 25° C.: Compound II Pattern 1
[5]; equilibration in solvents, 1 week, 25° C.
  Dissociation of the salt during equilibration experiments: no dissociation was observed
[1]; 25° C./92% RH open, 40° C./75% RH open, 60° C. tight container, one week
  Stability after exposure to the three conditions: good physical and chemical stability
[1]; [7]
  Bulk (HPLC) Purity: 99.5%
  Bulk Color: No change
[1]; [8]
  Bulk (HPLC) Purity: 99.4%
  Bulk Color: No change
[1]; [9]
  Bulk (HPLC) Purity: 99.7%
  Bulk Color: No change
[1]
  HPLC purity, Initial: 99.7%
[2]; ES1: pH 3.0, 100 mM citrate buffer, 37° C.
  pH of solution at 2 hours: 2.85
[2]; ES2: pH 4.5, 50 mM acetate buffer, 37° C.
  pH of solution at 2 hours: 4.2
[2]; ES3: pH 6.8, 50 mM phosphate buffer, 37° C.
  pH of solution at 2 hours: 6.47
[2]; ES4: Water, 37° C.
  pH of solution at 2 hours: 2.87
[2]; ES5: Simulated vaginal fluid (pH adjusted by 0.1N NaOH), 37° C.
  pH of solution at 2 hours: 5.79
[3]; 0% RH
  Desorp. (%) Cycle 1: 0.03%
  Desorp. (%) Cycle 2: 0.03%
  Sorp. (%) Cycle 1: 0.03%
  Sorp. (%) Cycle 2: 0.03%
[3]; 10% RH
  Desorp. (%) Cycle 1: 0.05%
  Desorp. (%) Cycle 2: 0.05%
  Sorp. (%) Cycle 1: 0.04%
  Sorp. (%) Cycle 2: 0.04%
[3]; 20% RH
  Desorp. (%) Cycle 1: 0.08%
  Desorp. (%) Cycle 2: 0.07%
  Sorp. (%) Cycle 1: 0.06%
  Sorp. (%) Cycle 2: 0.06%
[3]; 30% RH
  Desorp. (%) Cycle 1: 0.10%
  Desorp. (%) Cycle 2: 0.08%
  Sorp. (%) Cycle 1: 0.08%
  Sorp. (%) Cycle 2: 0.07%
[3]; 40% RH
  Desorp. (%) Cycle 1: 0.17%
  Desorp. (%) Cycle 2: 0.10%
  Sorp. (%) Cycle 1: 0.10%
  Sorp. (%) Cycle 2: 0.09%
[3]; 50% RH
  Desorp. (%) Cycle 2: 0.12%
  Sorp. (%) Cycle 1: 0.12%
[3]; 60% RH
  Desorp. (%) Cycle 2: 0.14%
  Sorp. (%) Cycle 1: 0.13%
[3]; 70% RH
  Desorp. (%) Cycle 2: 0.18%
  Sorp. (%) Cycle 1: 0.16%
[3]; 80% RH
  Desorp. (%) Cycle 2: 0.21%
  Sorp. (%) Cycle 1: 0.19%
[3]; 90% RH
  Desorp. (%) Cycle 2: 0.24%
  Sorp. (%) Cycle 1: 0.23%
[3]; 95% RH
  Desorp. (%) Cycle 2: 0.24%
  Sorp. (%) Cycle 1: 0.24%
[3]; DVS at 25° C., in words
  Hygroscopicity: slightly hygroscopic
[3]; after DVS 40-0-95-0-40% RH
  XRPD after DVS test: No form change
[3]; after humidity cycle 40-0-95-0-40% RH, listed as Compound II Pattern 1, monofumarate
  XRPD after DVS test: No form change
[3]; after humidity cycle 40-0-95-0-40% RH, monofumarate
  XRPD after DVS test: does not change
[3]
  Water uptake: about 0.2%
